Data as given in ChEMBL document CHEMBL1135258, “Substrate spectrum of tyrocidine thioesterase probed with randomized peptide N-acetylcysteamine thioesters” (Bioorg Med Chem Lett, 2002).
Where a SMILES comes first, the peptide text is derived from it. [ ]: non-standard residue; d: D form. The star is where a group is joined. SCH2CH2NHAc = CC(=O)NCCS*; Orn = NCCC[C@H](N)C(=O)O

Legend:
[1] = molecular target: T1, Thioesterase GrsT homolog tycF (Brevibacillus brevis) (UniProt O30412); assay: Apparent kinetic constant (Kcat) for tyrocidine thioesterase amplified from Bacillus brevis (ATCC8185)
T1 sequence (whole entry): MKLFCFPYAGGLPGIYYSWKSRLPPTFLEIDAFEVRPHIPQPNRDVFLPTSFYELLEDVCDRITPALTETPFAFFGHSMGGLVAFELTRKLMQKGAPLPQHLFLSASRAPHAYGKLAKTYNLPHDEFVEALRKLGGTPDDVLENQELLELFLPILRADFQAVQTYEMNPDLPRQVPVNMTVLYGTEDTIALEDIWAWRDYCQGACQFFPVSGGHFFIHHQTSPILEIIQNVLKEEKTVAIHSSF

[2] = molecular target: T1, Thioesterase GrsT homolog tycF (Brevibacillus brevis); assay: Catalytic efficiency (Kcat/Km) was determined; parameters: unit not given here

CC(=O)NCCSC(=O)[C@H](CC(C)C)NC(=O)[C@H](CCCN)NC(=O)[C@@H](NC(=O)[C@H](Cc1ccc(O)cc1)NC(=O)[C@H](CCC(N)=O)NC(=O)[C@H](CC(N)=O)NC(=O)[C@H](Cc1ccc(O)cc1)NC(=O)[C@H](Cc1ccccc1)NC(=O)[C@@H]1CCCN1C(=O)[C@H](N)Cc1ccccc1)C(C)C
k cat [1]: 11 min⁻¹ | Ratio [2]: 0.17

CC(=O)NCCSC(=O)[C@H](CC(C)C)NC(=O)[C@H](CCCN)NC(=O)[C@@H](NC(=O)[C@H](Cc1ccc(O)cc1)NC(=O)[C@H](CCC(N)=O)NC(=O)[C@H](CC(N)=O)NC(=O)[C@H](CCC(=O)O)NC(=O)[C@H](Cc1ccccc1)NC(=O)[C@@H]1CCCN1C(=O)[C@H](N)Cc1ccccc1)C(C)C
k cat [1]: 6.6 min⁻¹ | Ratio [2]: 0.57

CC(=O)NCCSC(=O)[C@H](CC(C)C)NC(=O)[C@H](CCCN)NC(=O)[C@@H](NC(=O)[C@H](Cc1ccc(O)cc1)NC(=O)[C@H](CCC(N)=O)NC(=O)[C@H](CC(N)=O)NC(=O)[C@@H](Cc1ccccc1)NC(=O)[C@H](Cc1ccccc1)NC(=O)[C@H](C)NC(=O)[C@H](N)Cc1ccccc1)C(C)C (H-[dF]AF[dF]NQYV[Orn]L-SCH2CH2NHAc)
k cat [1]: 7 min⁻¹ | Ratio [2]: 0.23

CC(=O)NCCSC(=O)[C@H](CC(C)C)NC(=O)[C@H](CCCN)NC(=O)[C@@H](NC(=O)[C@H](Cc1ccc(O)cc1)NC(=O)[C@H](CCC(N)=O)NC(=O)[C@H](CC(N)=O)NC(=O)[C@H](Cc1c[nH]cn1)NC(=O)[C@H](Cc1ccccc1)NC(=O)[C@@H]1CCCN1C(=O)[C@H](N)Cc1ccccc1)C(C)C
k cat [1]: 12 min⁻¹ | Ratio [2]: 0.15

CC(=O)NCCSC(=O)[C@H](CC(C)C)NC(=O)[C@H](CCCN)NC(=O)[C@H](CC(N)=O)NC(=O)[C@H](Cc1ccc(O)cc1)NC(=O)[C@H](CCC(N)=O)NC(=O)[C@H](CC(N)=O)NC(=O)[C@@H](Cc1ccccc1)NC(=O)[C@H](Cc1ccccc1)NC(=O)[C@@H]1CCCN1C(=O)[C@H](N)Cc1ccccc1
k cat [1]: 12 min⁻¹ | Ratio [2]: 0.22

CC(=O)NCCSC(=O)[C@H](CC(C)C)NC(=O)[C@H](CCCN)NC(=O)[C@@H](NC(=O)[C@H](Cc1ccc(O)cc1)NC(=O)[C@H](CCC(N)=O)NC(=O)[C@H](CC(N)=O)NC(=O)[C@@H](NC(=O)[C@H](Cc1ccccc1)NC(=O)[C@@H]1CCCN1C(=O)[C@H](N)Cc1ccccc1)[C@@H](C)O)C(C)C
k cat [1]: 8.1 min⁻¹ | Ratio [2]: 0.26

CC(=O)NCCSC(=O)[C@H](CC(C)C)NC(=O)[C@H](CCCN)NC(=O)[C@@H](NC(=O)[C@H](Cc1ccc(O)cc1)NC(=O)[C@H](CCC(N)=O)NC(=O)[C@H](CC(N)=O)NC(=O)[C@H](CS)NC(=O)[C@H](Cc1ccccc1)NC(=O)[C@@H]1CCCN1C(=O)[C@H](N)Cc1ccccc1)C(C)C
k cat [1]: 6.6 min⁻¹ | Ratio [2]: 0.25

CC(=O)NCCSC(=O)[C@H](CC(C)C)NC(=O)[C@H](CCCN)NC(=O)[C@@H](NC(=O)[C@H](Cc1ccc(O)cc1)NC(=O)[C@H](CCC(N)=O)NC(=O)[C@H](CC(N)=O)NC(=O)[C@@H]1CCCN1C(=O)[C@H](Cc1ccccc1)NC(=O)[C@@H]1CCCN1C(=O)[C@H](N)Cc1ccccc1)C(C)C
k cat [1]: 15 min⁻¹ | Ratio [2]: 0.11

CC(=O)NCCSC(=O)[C@H](CC(C)C)NC(=O)[C@H](CCCN)NC(=O)[C@@H](NC(=O)[C@H](Cc1ccc(O)cc1)NC(=O)[C@H](CCC(N)=O)NC(=O)[C@H](CC(N)=O)NC(=O)[C@H](CCCN=C(N)N)NC(=O)[C@H](Cc1ccccc1)NC(=O)[C@@H]1CCCN1C(=O)[C@H](N)Cc1ccccc1)C(C)C
k cat [1]: 12 min⁻¹ | Ratio [2]: 0.51

CC(=O)NCCSC(=O)[C@H](CC(C)C)NC(=O)[C@H](CCCN)NC(=O)[C@@H](NC(=O)[C@H](Cc1ccc(O)cc1)NC(=O)[C@H](CCC(N)=O)NC(=O)[C@H](CC(N)=O)NC(=O)[C@H](CC(=O)O)NC(=O)[C@H](Cc1ccccc1)NC(=O)[C@@H]1CCCN1C(=O)[C@H](N)Cc1ccccc1)C(C)C
k cat [1]: 14 min⁻¹ | Ratio [2]: 0.058
